Results reported in US20260125374A1, “PI3K-ALPHA INHIBITORS AND METHODS OF MAKING AND USING THE SAME” (Relay Therapeutics, Inc., priority 2021, published 2026).
Converted amounts (≈) assume the structure as drawn.

Legend:
[1] = Solubility study at 37° C. (buffer, water, bio-relevant media, MeOH/DCM); format: physicochemical
Method: In addition, residual solids were checked by chiral HPLC to confirm whether racemization occurs.
Accurate 4 mg of I-1 Form A, 5.13 mg of I-3 Form A, 4.63 mg of I-4 Form A was weighed into a 8 mL glass vial, respectively. 2 mL of solubility medium was added. The salt amount used is equivalent to 4 mg anhydrous free form. Obtained suspensions/solutions were stirred at 37° C. at 400 rpm for 2 hours and 24 hours and then centrifuged at 37° C. at 14,000 rpm for 5 min. Supernatants were analyzed by UPLC and PH meter for solubility and pH value, respectively. Residual solids (wet cakes) were characterized by XRPD to determine physical form and then analyzed by HPLC for chiral purity.

[2] = Hygroscopicity by DVS; format: physicochemical
Method: • Method 1 (for I-1 Form A and I-3 Form A) • Instrument Intrinsic, Advantage or Adventure • Total gas flow 200 sccm • Oven temperature 25° C. • Solvent Water • Method Cycle: 40-0-95-0-40% RH • Stage Step: 10% • Equilibrium: 0.002 dm/dt (%/min) • Minimum dm/dt stability duration: 60 min • Maximum dm/dt stage time: 360 min • Method 2 (for I-4 Form A) • Instrument Intrinsic, Advantage or Adventure • Total gas flow 200 sccm • Oven temperature 25° C. • Solvent Water • Method Cycle: 40-95-0-95-40% RH • Stage Step: 10% • Equilibrium: 0.002 dm/dt (%/min) • Minimum dm/dt stability duration: 60 min • Maximum dm/dt stage time: 360 min
I-1 Form A is hygroscopic. It absorbs about 5.5% water by weight from 40% RH to 95% RH. […] It absorbs about 40% water by weight from 40% RH to 95% RH. Form changed after the DVS test. […] It starts to absorb water when RH>40% and potential hydrate form generates at high humidity based on DVS data. The sorption and desorption are reversible.
Water sorption and desorption behavior of I-1 Form A, I-3 Form A, and I-4 Form A was investigated by DVS at 25° C. with a cycle of 40-0-95-0-40% RH, dm/dt 0.002, min. equilibration time 60 min and max. equilibration time 360 min. XRPD was measured after the DVS test to determine form change.

[3] = FaSSIF-V1, pH 6.5, 2 hours, listed as I-3 Form A
[4] = FaSSIF-V1, pH 6.5, 24 hours, listed as I-3 Form A
[5] = FeSSIF-V1, pH 5.0, 2 hours, listed as I-3 Form A
[6] = FeSSIF-V1, pH 5.0, 24 hours, listed as I-3 Form A
[7] = SGF, pH 2.0, 24 hours, listed as I-3 Form A
[8] = Water, 24 hours, listed as I-3 Form A
[9] = pH 2, HCl, 24 hours, listed as I-3 Form A
[10] = DVS 25° C., 0% RH, listed as I-3 Form A
[11] = DVS 25° C., 10% RH, listed as I-3 Form A
[12] = DVS 25° C., 20% RH, listed as I-3 Form A
[13] = DVS 25° C., 30% RH, listed as I-3 Form A
[14] = DVS 25° C., 40% RH, listed as I-3 Form A
[15] = DVS 25° C., 50% RH, listed as I-3 Form A
[16] = DVS 25° C., 60% RH, listed as I-3 Form A
[17] = DVS 25° C., 70% RH, listed as I-3 Form A
[18] = DVS 25° C., 80% RH, listed as I-3 Form A
[19] = DVS 25° C., 90% RH, listed as I-3 Form A
[20] = DVS 25° C., 95% RH, listed as I-3 Form A
[21] = FaSSIF-V1, pH 6.5, 2 hours, listed as I-4 Form A
[22] = FaSSIF-V1, pH 6.5, 24 hours, listed as I-4 Form A
[23] = FeSSIF-V1, pH 5.0, 2 hours, listed as I-4 Form A
[24] = FeSSIF-V1, pH 5.0, 24 hours, listed as I-4 Form A
[25] = SGF, pH 2.0, 24 hours, listed as I-4 Form A
[26] = Water, 24 hours, listed as I-4 Form A
[27] = pH 2, HCl, 24 hours, listed as I-4 Form A
[28] = DVS 25° C., 0% RH, listed as I-4 Form A
[29] = DVS 25° C., 10% RH, listed as I-4 Form A
[30] = DVS 25° C., 20% RH, listed as I-4 Form A
[31] = DVS 25° C., 30% RH, listed as I-4 Form A
[32] = DVS 25° C., 40% RH, listed as I-4 Form A
[33] = DVS 25° C., 50% RH, listed as I-4 Form A
[34] = DVS 25° C., 60% RH, listed as I-4 Form A
[35] = DVS 25° C., 70% RH, listed as I-4 Form A
[36] = DVS 25° C., 80% RH, listed as I-4 Form A
[37] = DVS 25° C., 90% RH, listed as I-4 Form A
[38] = DVS 25° C., 95% RH, listed as I-4 Form A

SMILES: N#Cc1c(-c2cc(NC(=O)c3cc(F)cc(C(F)(F)F)c3)c3c(c2)C(=O)N[C@H]3c2cc(F)ccc2Cl)ccc2ncnn12 [Compound I-3]
- Chiral purity [1, 3]: purity: 96.1%)
- Solubility [1, 3]: 52.2 μg/mL (chiral
- Chiral purity (solids) [1, 4]: 98.4%)
- Solubility [1, 4]: 0.7 µg/mL (≈ 1.15 µM)
- pH of supernatant [1, 4]: 6.17
- Chiral purity [1, 5]: purity: 97.1%)
- Solubility [1, 5]: 176.1 μg/mL(chiral
- Chiral purity (solids) [1, 6]: 66.4%)
- Solubility [1, 6]: 19.0 µg/mL (≈ 31.2 µM)
- pH of supernatant [1, 6]: 4.86
- Solubility ([1]; MeOH/DCM (1:2, v/v), 2 hours, listed as I-3 Form A): >75000 µg/mL
- Solubility ([1]; MeOH/DCM (1:2, v/v), 24 hours, listed as I-3 Form A): >75000 µg/mL
- Solubility ([1]; SGF, pH 2.0, 2 hours, listed as I-3 Form A): 4.2 µg/mL (≈ 6.9 µM)
- Chiral purity (solids) [1, 7]: 98.3%)
- Solubility [1, 7]: 1.3 µg/mL (≈ 2.13 µM)
- pH of supernatant [1, 7]: 1.92
- Solubility ([1]; Water, 2 hours, LOQ: 0.5 μg/mL): <LOQ
- Solubility ([1]; Water, 24 hours, LOQ: 0.5 μg/mL): LOQ
- Chiral purity (solids) [1, 8]: 98.3%)
- pH of supernatant [1, 8]: 2.54
- solubility in MeOH/DCM (1:2, v/v) ([1]; listed as I-3 Form A): > 75000 µg/mL
- Solubility ([1]; pH 2, HCl, 2 hours, LOQ: 0.5 μg/mL): <LOQ
- Solubility ([1]; pH 2, HCl, 24 hours, LOQ: 0.5 μg/mL): LOQ
- Chiral purity (solids) [1, 9]: 98.3%)
- pH of supernatant [1, 9]: 1.86
- 1st Desorp. (%) [2, 10]: 0.05%
- 1st Sorp. (%) [2, 10]: 0.05%
- 2nd Desorp. (%) [2, 10]: 0.00%
- 2nd Sorp. (%) [2, 10]: 0.00%
- 2nd Desorp. (%) ([2]; DVS 25° C., 10% RH): 0.11%
- 1st Desorp. (%) [2, 11]: 0.16%
- 1st Sorp. (%) [2, 11]: 0.15%
- 2nd Sorp. (%) [2, 11]: 0.10%
- 1st Desorp. (%) [2, 12]: 0.27%
- 1st Sorp. (%) [2, 12]: 0.26%
- 2nd Desorp. (%) [2, 12]: 0.22%
- 2nd Sorp. (%) [2, 12]: 0.21%
- 1st Desorp. (%) [2, 13]: 0.40%
- 1st Sorp. (%) [2, 13]: 0.38%
- 2nd Desorp. (%) [2, 13]: 0.37%
- 2nd Sorp. (%) [2, 13]: 0.35%
- 1st Desorp. (%) [2, 14]: 0.69%
- 1st Sorp. (%) [2, 14]: 0.67%
- 2nd Desorp. (%) [2, 14]: 2.11%
- 2nd Sorp. (%) [2, 14]: 0.81%
- 1st Sorp. (%) [2, 15]: 2.34%
- 2nd Desorp. (%) [2, 15]: 2.44%
- 1st Sorp. (%) [2, 16]: 2.53%
- 2nd Desorp. (%) [2, 16]: 2.64%
- 1st Sorp. (%) [2, 17]: 2.84%
- 2nd Desorp. (%) [2, 17]: 4.17%
- 1st Sorp. (%) [2, 18]: 4.29%
- 2nd Desorp. (%) [2, 18]: 4.45%
- 1st Sorp. (%) [2, 19]: 4.64%
- 2nd Desorp. (%) [2, 19]: 4.76%
- 1st Sorp. (%) [2, 20]: 5.36%
- 2nd Desorp. (%) [2, 20]: 5.36%
- form after the DVS test (XRPD) ([2]; listed as I-3 Form A): still I-3 Form A

SMILES: N#Cc1c(-c2cc(NC(=O)c3cc(F)cc(C(F)(F)F)c3)c3c(c2)C(=O)N[C@H]3c2cc(F)ccc2Cl)ccc2ncnn12 [Compound I-4]
- Chiral purity [1, 21]: purity: 98.3%)
- Solubility [1, 21]: 44.1 μg/mL(chiral
- Chiral purity (solids) [1, 22]: 99.3%)
- Solubility [1, 22]: 0.4 µg/mL (≈ 0.657 µM)
- pH of supernatant [1, 22]: 6.15
- Chiral purity [1, 23]: purity: 97.7%)
- Solubility [1, 23]: 239.1 μg/mL(chiral
- Chiral purity (solids) [1, 24]: 85.2%)
- Solubility [1, 24]: 16.2 µg/mL (≈ 26.6 µM)
- pH of supernatant [1, 24]: 4.84
- Solubility ([1]; MeOH/DCM (1:2, v/v), 2 hours, listed as I-4 Form A): >111000 µg/mL
- Solubility ([1]; MeOH/DCM (1:2, v/v), 24 hours, listed as I-4 Form A): >111000 µg/mL
- Solubility ([1]; SGF, pH 2.0, 2 hours, listed as I-4 Form A): 3.2 µg/mL (≈ 5.26 µM)
- Chiral purity (solids) [1, 25]: 99.2%)
- Solubility [1, 25]: 2.6 µg/mL (≈ 4.27 µM)
- pH of supernatant [1, 25]: 1.89
- Chiral purity (solids) [1, 26]: 99.2%)
- pH of supernatant [1, 26]: 2.52
- solubility in MeOH/DCM (1:2, v/v) ([1]; listed as I-4 Form A): > 111000 µg/mL
- Chiral purity (solids) [1, 27]: 99.3%)
- pH of supernatant [1, 27]: 1.89
- 1st Desorp. (%) [2, 28]: 0.01%
- 2nd Sorp. (%) [2, 28]: 0.01%
- 1st Desorp. (%) [2, 29]: 1.52%
- 2nd Sorp. (%) [2, 29]: 0.98%
- 1st Desorp. (%) [2, 30]: 2.78%
- 2nd Sorp. (%) [2, 30]: 1.76%
- 1st Desorp. (%) [2, 31]: 3.61%
- 2nd Sorp. (%) [2, 31]: 2.64%
- 1st Desorp. (%) [2, 32]: 4.52%
- 1st Sorp. (%) [2, 32]: 1.62%
- 2nd Desorp. (%) [2, 32]: 4.51%
- 2nd Sorp. (%) [2, 32]: 3.57%
- 1st Desorp. (%) ([2]; DVS 25° C., 50% RH): 5.78%
- 2nd Sorp. (%) ([2]; DVS 25° C., 50% RH): 4.63%
- 1st Sorp. (%) [2, 33]: 3.50%
- 2nd Desorp. (%) [2, 33]: 5.71%
- 1st Desorp. (%) ([2]; DVS 25° C., 60% RH): 7.60%
- 2nd Sorp. (%) ([2]; DVS 25° C., 60% RH): 6.22%
- 1st Sorp. (%) [2, 34]: 4.75%
- 2nd Desorp. (%) [2, 34]: 7.44%
- 1st Desorp. (%) ([2]; DVS 25° C., 70% RH): 11.14%
- 2nd Sorp. (%) ([2]; DVS 25° C., 70% RH): 9.34%
- 1st Sorp. (%) [2, 35]: 6.87%
- 2nd Desorp. (%) [2, 35]: 10.54%
- 1st Desorp. (%) ([2]; DVS 25° C., 80% RH): 16.84%
- 2nd Sorp. (%) ([2]; DVS 25° C., 80% RH): 15.03%
- 1st Sorp. (%) [2, 36]: 12.16%
- 2nd Desorp. (%) [2, 36]: 17.11%
- 1st Desorp. (%) ([2]; DVS 25° C., 90% RH): 31.04%
- 2nd Sorp. (%) ([2]; DVS 25° C., 90% RH): 27.39%
- 1st Sorp. (%) [2, 37]: 25.12%
- 2nd Desorp. (%) [2, 37]: 32.94%
- 1st Desorp. (%) ([2]; DVS 25° C., 95% RH): 42.35%
- 2nd Sorp. (%) ([2]; DVS 25° C., 95% RH): 44.74%
- 1st Sorp. (%) [2, 38]: 42.35%
- 2nd Desorp. (%) [2, 38]: 44.74%
- XRPD after DVS test ([2]; DVS 25° C., cycle 40-0-95-0-40% RH, listed as I-4 Form A): Form changed
- hygroscopicity ([2]; DVS at 25° C., listed as I-4 Form A): very hygroscopic
- water absorbed ([2]; from 40% RH to 95% RH, 25° C., listed as I-4 Form A): about 40 % water by weight
- form after the DVS test (XRPD) ([2]; listed as I-4 Form A): Form changed
